# Reference: patent US12551475B2, “Methods and compositions for treating RNA viral infections” (Model Medicines, Inc., priority 2020, dated 2026)
# Where a name gives a salt, the structure may show the parent alone. Read-outs that look alike come from different tables or passages of the source.
# Experiments:
# MCF-7:C cells = settings: 10 nM; cited from earlier work
# HIV-1 = settings: MT-4 cells; cited from earlier work
# [1] = 20 mg/kg saquinavir with 50 mg/kg ritonavir, mice; cited from earlier work
# HIV-2 protease = HIV-2 protease (Human immunodeficiency virus type 2 subtype A, UniProt P04584); settings: cited from earlier work
# HIV-2 protease, sequence (P04584 514-612 limits assumed): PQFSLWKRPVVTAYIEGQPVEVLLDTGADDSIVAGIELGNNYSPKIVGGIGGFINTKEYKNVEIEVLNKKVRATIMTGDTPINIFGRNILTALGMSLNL
# γ-secretase = settings: cited from earlier work
# ACE2 = target: T1, ACE2 (Homo sapiens, UniProt Q9BYF1); assay: ACE2 activity assay; type: biochemical
# T1 construct: purchased BPS Bioscience 79923 (assay kit)
# T1 sequence (Q9BYF1 18-805): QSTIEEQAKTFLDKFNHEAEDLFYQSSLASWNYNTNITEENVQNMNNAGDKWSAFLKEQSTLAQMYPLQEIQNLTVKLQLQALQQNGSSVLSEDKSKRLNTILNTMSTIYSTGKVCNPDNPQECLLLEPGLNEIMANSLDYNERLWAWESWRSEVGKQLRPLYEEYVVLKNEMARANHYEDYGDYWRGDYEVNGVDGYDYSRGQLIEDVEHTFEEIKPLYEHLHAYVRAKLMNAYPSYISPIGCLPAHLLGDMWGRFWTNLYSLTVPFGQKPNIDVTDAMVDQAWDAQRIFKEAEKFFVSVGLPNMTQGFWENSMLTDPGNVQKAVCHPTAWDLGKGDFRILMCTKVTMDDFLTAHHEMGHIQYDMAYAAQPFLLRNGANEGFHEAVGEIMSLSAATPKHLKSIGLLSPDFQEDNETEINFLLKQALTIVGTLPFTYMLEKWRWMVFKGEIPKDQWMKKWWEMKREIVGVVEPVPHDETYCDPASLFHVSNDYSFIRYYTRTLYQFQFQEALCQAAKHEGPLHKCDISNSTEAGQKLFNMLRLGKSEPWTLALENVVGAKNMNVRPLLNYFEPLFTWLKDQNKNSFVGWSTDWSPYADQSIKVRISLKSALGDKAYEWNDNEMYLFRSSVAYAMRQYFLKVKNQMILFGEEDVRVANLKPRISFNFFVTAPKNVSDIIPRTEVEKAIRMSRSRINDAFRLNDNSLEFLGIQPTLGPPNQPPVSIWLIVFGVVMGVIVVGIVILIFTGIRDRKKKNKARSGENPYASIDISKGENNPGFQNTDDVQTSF
# Description: The ACE2 Activity Assay described in this example is designed to measure the exopeptidase activity of ACE2 for screening and profiling applications. The ACE2 assay can be performed in a convenient 96-well format, with purified ACE2, its substrate, and ACE2 buffer for 96 reactions. See https://bpsioscience.com/ace2-inhibitor-screening-assay-kit-79923
# ACE2, ACE2 Fluorogenic Substrate, ACE2 buffer, 96-well black microplate. Adjustable micropipettor and sterile tips and Fluorescent microplate reader.
# All Samples and Controls were Tested in Duplicate.
# • 1. Thawed ACE2 on ice. Upon first thaw, tube containing enzyme was briefly spun to recover full contents of the tube. Note: ACE2 is sensitive to freeze/thaw cycles. • 2. Prepared Enzyme solution (0.5 ng/μl ACE2) by diluting ACE2 in ACE2 Buffer. • 3. Added 20 μl of Enzyme solution (0.5 ng/μl ACE2) to each well designated “Positive Control” and “Test Inhibitor,” and 20 μl of ACE2 buffer to each well designated “Blank.” • 4. Added 5 μl of Test Inhibitor solution to each well designated “Test Inhibitor.” For the wells labeled “Positive Control” and “Blank,” added 5 μl of 10% DMSO in water (Inhibitor buffer). The final concentration of DMSO in the reaction was kept ≤1%. • 5. Added 25 μl of ACE2 Fluorogenic Substrate to all wells. Protected from light and reaction was incubated at room temperature for 60 minutes.
# • 6. The fluorescence intensity of the samples (λexcitation=555 nm; λemission=585 nm) was read in an appropriate microplate reader. Data Analysis
# All of the enzyme activity assays were performed in duplicates at each concentration. The fluorescent intensity data were analyzed using the computer software Graphpad Prism. In the absence of the compound, the fluorescent intensity (Ft) in each data set was defined as 100% activity. In the absence of the enzyme, the fluorescent intensity (Fb) in each data set was defined as 0% activity. The percent activity in the presence of each compound was calculated according to the following equation: % activity=(F−Fb)/(Ft−Fb), where F=the fluorescent intensity in the presence of the compound.
# The values of percentage activity were plotted on a bar graph.
# Notch signaling = settings: cited from earlier work
# HIV aspartyl protease = HIV aspartyl protease (Human immunodeficiency virus type 1 group M subtype B, UniProt P04585); settings: cited from earlier work
# [2] = target: human acidic mammalian chitinase (Homo sapiens, UniProt Q9BZP6); settings: cited from earlier work
# human acidic mammalian chitinase, sequence (Q9BZP6 22-476): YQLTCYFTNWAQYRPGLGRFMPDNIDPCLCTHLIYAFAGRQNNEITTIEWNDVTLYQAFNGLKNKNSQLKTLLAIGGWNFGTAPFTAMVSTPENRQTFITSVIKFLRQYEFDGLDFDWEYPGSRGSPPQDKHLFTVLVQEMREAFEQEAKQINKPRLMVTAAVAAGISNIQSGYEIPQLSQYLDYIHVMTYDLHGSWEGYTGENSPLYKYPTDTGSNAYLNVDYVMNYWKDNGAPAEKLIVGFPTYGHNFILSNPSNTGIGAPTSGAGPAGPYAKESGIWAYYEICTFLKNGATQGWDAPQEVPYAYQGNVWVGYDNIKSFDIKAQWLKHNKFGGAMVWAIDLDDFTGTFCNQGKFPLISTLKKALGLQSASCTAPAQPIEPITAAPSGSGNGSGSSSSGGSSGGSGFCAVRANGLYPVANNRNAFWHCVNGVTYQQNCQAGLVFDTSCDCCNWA
# [3] = system: isolated peripheral blood mononuclear cells; settings: cited from earlier work
# [4] = target: lysophosphatidic acyl transferase (LPAAT); settings: LPS-activated LPAAT; read-out: IC50 (generation of phosphatidic acid); cited from earlier work
# Scaber cells = settings: cited from earlier work
# MCF-7 cells = settings: cited from earlier work
# SIHA cells = settings: cited from earlier work
# MKN45 cells = settings: cited from earlier work
# COLO205 cells = settings: cited from earlier work
# HCT116 cells = settings: cited from earlier work
# MO-91 = settings: cited from earlier work
# KM12 = settings: cited from earlier work
# CUTO-3.29 = settings: cited from earlier work
# [5] = system: tropomyosin-related kinases TrkA, TrkB, and TrkC; settings: cited from earlier work
# [6] = target: mitochondrial long-chain 3-ketoacyl thiolase (Homo sapiens, UniProt P55084); settings: cited from earlier work
# mitochondrial long-chain 3-ketoacyl thiolase, sequence (P55084 34-474): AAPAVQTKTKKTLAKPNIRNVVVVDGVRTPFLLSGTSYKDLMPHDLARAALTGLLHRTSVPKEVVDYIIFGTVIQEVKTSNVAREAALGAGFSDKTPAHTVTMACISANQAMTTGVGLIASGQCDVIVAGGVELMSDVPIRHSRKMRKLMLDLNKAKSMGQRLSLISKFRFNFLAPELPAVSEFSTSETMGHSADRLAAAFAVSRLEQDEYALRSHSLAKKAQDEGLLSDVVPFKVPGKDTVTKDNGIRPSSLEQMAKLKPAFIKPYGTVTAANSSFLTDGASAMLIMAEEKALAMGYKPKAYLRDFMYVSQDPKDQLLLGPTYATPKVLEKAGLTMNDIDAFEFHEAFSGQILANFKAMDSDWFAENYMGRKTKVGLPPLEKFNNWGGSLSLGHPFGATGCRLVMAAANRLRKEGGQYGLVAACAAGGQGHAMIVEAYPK
# mitochondrial long-chain 3-ketoacyl thiolase, sequence (P40939 37-763 partner): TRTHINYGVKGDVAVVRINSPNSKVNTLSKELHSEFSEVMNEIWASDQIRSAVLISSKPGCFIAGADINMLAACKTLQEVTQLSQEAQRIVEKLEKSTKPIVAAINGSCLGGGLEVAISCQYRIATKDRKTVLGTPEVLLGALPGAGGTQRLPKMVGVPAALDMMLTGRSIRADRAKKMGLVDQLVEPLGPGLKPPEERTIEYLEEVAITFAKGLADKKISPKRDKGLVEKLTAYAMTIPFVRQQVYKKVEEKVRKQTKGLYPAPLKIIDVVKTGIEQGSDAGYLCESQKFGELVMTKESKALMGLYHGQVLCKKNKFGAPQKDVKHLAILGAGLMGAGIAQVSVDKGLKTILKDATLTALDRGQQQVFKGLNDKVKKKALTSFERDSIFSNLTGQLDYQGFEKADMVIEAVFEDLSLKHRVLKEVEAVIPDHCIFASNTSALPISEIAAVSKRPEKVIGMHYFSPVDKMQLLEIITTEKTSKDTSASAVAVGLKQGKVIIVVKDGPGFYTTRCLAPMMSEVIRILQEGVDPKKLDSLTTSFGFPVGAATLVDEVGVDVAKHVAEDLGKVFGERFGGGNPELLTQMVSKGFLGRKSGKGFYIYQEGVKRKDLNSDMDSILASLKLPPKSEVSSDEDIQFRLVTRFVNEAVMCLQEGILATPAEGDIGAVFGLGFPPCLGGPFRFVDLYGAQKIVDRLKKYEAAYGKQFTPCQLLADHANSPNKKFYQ
# [7] = target: GABAA receptor α1 subunits (Homo sapiens, UniProt P14867); settings: cited from earlier work
# GABAA receptor α1 subunits, sequence (P14867 28-456): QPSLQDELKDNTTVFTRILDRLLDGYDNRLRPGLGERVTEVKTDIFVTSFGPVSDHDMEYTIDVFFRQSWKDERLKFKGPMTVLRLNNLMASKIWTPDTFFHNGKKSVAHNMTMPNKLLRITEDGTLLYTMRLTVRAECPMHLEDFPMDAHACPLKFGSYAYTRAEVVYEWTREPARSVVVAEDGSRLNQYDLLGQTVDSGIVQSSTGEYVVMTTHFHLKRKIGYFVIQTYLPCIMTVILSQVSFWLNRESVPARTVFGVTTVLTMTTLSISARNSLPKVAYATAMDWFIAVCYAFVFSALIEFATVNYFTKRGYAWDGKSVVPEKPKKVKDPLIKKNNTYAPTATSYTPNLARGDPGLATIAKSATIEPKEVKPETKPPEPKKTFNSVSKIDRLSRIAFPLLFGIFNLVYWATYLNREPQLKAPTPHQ
# GABAA receptor α1 subunits, sequence (P47870 25-512 partner limits assumed): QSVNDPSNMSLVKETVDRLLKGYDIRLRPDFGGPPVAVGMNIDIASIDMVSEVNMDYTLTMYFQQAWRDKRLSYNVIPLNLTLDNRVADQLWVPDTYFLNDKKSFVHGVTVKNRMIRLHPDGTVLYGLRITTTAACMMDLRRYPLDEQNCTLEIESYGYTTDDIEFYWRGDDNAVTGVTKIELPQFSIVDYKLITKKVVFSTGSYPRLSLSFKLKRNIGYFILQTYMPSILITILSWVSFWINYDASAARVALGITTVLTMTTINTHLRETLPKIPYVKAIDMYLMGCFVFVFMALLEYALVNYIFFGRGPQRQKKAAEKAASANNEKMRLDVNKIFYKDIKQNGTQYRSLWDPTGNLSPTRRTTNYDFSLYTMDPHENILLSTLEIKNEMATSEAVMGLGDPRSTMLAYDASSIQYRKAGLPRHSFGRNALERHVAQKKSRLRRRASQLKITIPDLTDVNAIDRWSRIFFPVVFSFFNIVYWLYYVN
# GABAA receptor α1 subunits, sequence (P18507 40-467 partner limits assumed): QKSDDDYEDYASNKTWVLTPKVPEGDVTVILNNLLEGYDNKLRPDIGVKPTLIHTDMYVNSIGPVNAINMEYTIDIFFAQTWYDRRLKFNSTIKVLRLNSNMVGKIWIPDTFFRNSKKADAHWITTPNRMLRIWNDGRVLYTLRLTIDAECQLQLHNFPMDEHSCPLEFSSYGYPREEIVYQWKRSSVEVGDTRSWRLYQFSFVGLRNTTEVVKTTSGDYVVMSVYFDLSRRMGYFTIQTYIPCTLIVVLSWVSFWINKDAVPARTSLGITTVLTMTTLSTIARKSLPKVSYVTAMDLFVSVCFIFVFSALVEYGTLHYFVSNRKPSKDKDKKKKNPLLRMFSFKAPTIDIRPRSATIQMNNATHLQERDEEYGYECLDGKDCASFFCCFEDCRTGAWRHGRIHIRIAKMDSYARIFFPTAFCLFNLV
# [8] = system: HT-29 human colon adenocarcinoma cells; settings: read-out: IC50 (cytotoxicity); cited from earlier work
# [9] = system: HT-29 human colon adenocarcinoma cells; settings: read-out: IC50 (DNA damage); cited from earlier work
# [10] = target: transient receptor potential canonical channel 5 (TRPC5) (Homo sapiens, UniProt Q9UL62); settings: cited from earlier work
# transient receptor potential canonical channel 5 (TRPC5), sequence (Q9UL62 whole entry, species assumed): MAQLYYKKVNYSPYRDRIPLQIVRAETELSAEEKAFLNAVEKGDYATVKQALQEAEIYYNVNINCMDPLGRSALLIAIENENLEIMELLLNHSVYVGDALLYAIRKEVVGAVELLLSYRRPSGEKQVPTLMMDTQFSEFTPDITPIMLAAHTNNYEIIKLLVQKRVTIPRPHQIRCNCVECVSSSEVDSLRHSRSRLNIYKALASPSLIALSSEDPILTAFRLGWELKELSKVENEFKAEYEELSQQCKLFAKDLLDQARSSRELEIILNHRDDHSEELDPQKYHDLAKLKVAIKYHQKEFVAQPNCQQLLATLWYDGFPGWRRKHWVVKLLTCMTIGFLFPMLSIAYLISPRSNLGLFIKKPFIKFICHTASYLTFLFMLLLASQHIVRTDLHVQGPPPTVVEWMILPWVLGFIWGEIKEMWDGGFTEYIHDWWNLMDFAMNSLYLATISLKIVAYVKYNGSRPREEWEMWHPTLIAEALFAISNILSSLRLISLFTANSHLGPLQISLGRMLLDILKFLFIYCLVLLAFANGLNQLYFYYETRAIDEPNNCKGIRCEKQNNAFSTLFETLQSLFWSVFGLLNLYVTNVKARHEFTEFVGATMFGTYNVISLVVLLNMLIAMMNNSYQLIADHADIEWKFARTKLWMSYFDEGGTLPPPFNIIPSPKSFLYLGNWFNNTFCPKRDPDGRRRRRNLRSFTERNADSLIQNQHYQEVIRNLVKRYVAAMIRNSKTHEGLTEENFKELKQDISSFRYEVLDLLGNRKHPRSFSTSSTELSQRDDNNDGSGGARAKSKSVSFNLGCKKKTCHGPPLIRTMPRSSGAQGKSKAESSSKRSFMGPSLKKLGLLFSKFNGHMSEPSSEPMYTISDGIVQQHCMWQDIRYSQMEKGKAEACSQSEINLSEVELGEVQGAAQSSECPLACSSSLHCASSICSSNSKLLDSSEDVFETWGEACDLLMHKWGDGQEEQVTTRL
# HBV = settings: mouse, in vivo; cited from earlier work
# HepG2 2.2.15 cells = settings: cited from earlier work
# hepatitis B virus (HBV) = settings: HepG2 2.2.15 cells infected with HBV; cited from earlier work
compound,measurement,setting,value
"1-[[4-[2-(hexahydro-1H-azepin-1-yl)ethoxy]phenyl]methyl]-2-(4-hydroxyphenyl)-3-methyl-1H-indol-5-ol, acetate [Bazedoxifene (acetate)]",reduction of growth,MCF-7:C cells,80%
"CC(C)CN(C[C@@H](O)[C@H](Cc1ccccc1)NC(=O)O[C@H]1CCOC1)S(=O)(=O)c1ccc(N)cc1 [Amprenavir, N-[(1S,2R)-3-[[(4-aminophenyl)sulfonyl](2-methylpropyl)amino]-2-hydroxy-1-(phenylmethyl)propyl]-carbamic acid, (3S)-tetrahydro-3-furanyl ester]",IC50,HIV-1,0.15 µM
"CC(C)(C)NC(=O)[C@@H]1C[C@@H]2CCCC[C@@H]2CN1C[C@@H](O)[C@H](Cc1ccccc1)NC(=O)[C@H](CC(N)=O)NC(=O)c1ccc2ccccc2n1.CS(=O)(=O)O [Saquinavir, (2S)—N^1—[(1S,2R)-3-[(3S,4aS,8aS)-3-[[(1,1-dimethylethyl)amino]carbonyl]octahydro-2(1H)-isoquinolinyl]-2-hydroxy-1-(phenylmethyl)propyl]-2-[(2-quinolinylcarbonyl)amino]-butanediamide, monomethanesulfonate]",increase of bioavailability,[1],325 fold
same,Ki,HIV-2 protease,< 0.0001 µM
"CC(C)[C@H](O)C(=O)N[C@@H](C)C(=O)N[C@@H]1C(=O)N(C)CCc2ccccc21 [Semagacestat, (2S)-2-hydroxy-3-methyl-N-[(1S)-1-methyl-2-oxo-2-[[(1S)-2,3,4,5-tetrahydro-3-methyl-2-oxo-1H-3-benzazepin-1-yl]amino]ethyl]-butanamide]",IC50,"γ-secretase; Aβ38, read-out: IC50 (production of Aβ38)",0.012 µM
same,IC50,"γ-secretase; Aβ40, read-out: IC50 (production of Aβ40)",0.0121 µM
same,IC50,"γ-secretase; Aβ42, read-out: IC50 (production of Aβ42)",0.0109 µM
same,ACE2 Activity (Fluorescence count) Repeat 1,"ACE2; Semagacestat 0.00586 μM, Repeat 1",16794
same,activity at 0.00586 µM,"ACE2; Semagacestat 0.00586 μM, Repeat 1, read-out: % Activity Repeat 1",99%
same,ACE2 Activity (Fluorescence count) Repeat 2,"ACE2; Semagacestat 0.00586 μM, Repeat 2",17665
same,activity at 0.00586 µM,"ACE2; Semagacestat 0.00586 μM, Repeat 2, read-out: % Activity Repeat 2",104%
same,ACE2 Activity (Fluorescence count) Repeat 1,"ACE2; Semagacestat 0.0117 μM, Repeat 1",17480
same,activity at 0.0117 µM,"ACE2; Semagacestat 0.0117 μM, Repeat 1, read-out: % Activity Repeat 1",103%
same,ACE2 Activity (Fluorescence count) Repeat 2,"ACE2; Semagacestat 0.0117 μM, Repeat 2",17772
same,activity at 0.0117 µM,"ACE2; Semagacestat 0.0117 μM, Repeat 2, read-out: % Activity Repeat 2",105%
same,ACE2 Activity (Fluorescence count) Repeat 1,"ACE2; Semagacestat 0.0234 μM, Repeat 1",17334
same,activity at 0.0234 µM,"ACE2; Semagacestat 0.0234 μM, Repeat 1, read-out: % Activity Repeat 1",102%
same,ACE2 Activity (Fluorescence count) Repeat 2,"ACE2; Semagacestat 0.0234 μM, Repeat 2",17846
same,activity at 0.0234 µM,"ACE2; Semagacestat 0.0234 μM, Repeat 2, read-out: % Activity Repeat 2",105%
same,ACE2 Activity (Fluorescence count) Repeat 1,"ACE2; Semagacestat 0.188 μM, Repeat 1",16603
same,activity at 0.188 µM,"ACE2; Semagacestat 0.188 μM, Repeat 1, read-out: % Activity Repeat 1",97%
same,ACE2 Activity (Fluorescence count) Repeat 2,"ACE2; Semagacestat 0.188 μM, Repeat 2",16796
same,activity at 0.188 µM,"ACE2; Semagacestat 0.188 μM, Repeat 2, read-out: % Activity Repeat 2",99%
same,activity at […],"ACE2; Semagacestat 0.75 μM, Repeat 1, read-out: % Activity Repeat 1",85%
same,activity at […],"ACE2; Semagacestat 0.75 μM, Repeat 2, read-out: % Activity Repeat 2",98%
same,activity at […],"ACE2; Semagacestat 1.5 μM, Repeat 1, read-out: % Activity Repeat 1",78%
same,activity at […],"ACE2; Semagacestat 1.5 μM, Repeat 2, read-out: % Activity Repeat 2",85%
same,effect on ACE2 activity (in words),ACE2; test range 0.0029-1.5,inhibited ACE2 activity
same,IC50,Notch signaling,0.0141 µM
"CCC[C@@]1(CCc2ccccc2)CC(O)=C([C@H](CC)c2cccc(NS(=O)(=O)c3ccc(C(F)(F)F)cn3)c2)C(=O)O1 [Tipranavir, N-[3-[(1R)-1-[(6R)-5,6-dihydro-4-hydroxy-2-oxo-6-(2-phenylethyl)-6-propyl-2H-pyran-3-yl]propyl]phenyl]-5-(trifluoromethyl)-2-pyridinesulfonamide]",Ki,HIV aspartyl protease,< 0.001 µM
"CC(=O)CCCCn1c(=O)c2c(ncn2C)n(C)c1=O [Pentoxifylline, 3,7-dihydro-3,7-dimethyl-1-(5-oxohexyl)-1H-purine-2,6-dione]",IC50,[2],49 µM
same,IC50,[3],85 µM
same,IC50,[4],500 µM
"CCCCCOC(=O)Nc1nc(=O)n([C@@H]2O[C@H](C)[C@@H](O)[C@H]2O)cc1F [Capecitabine, 5′-deoxy-5-fluoro-N-[(pentyloxy)carbonyl]-cytidine]",IC50,Scaber cells,97 µM
same,IC50,MCF-7 cells,> 1000 µM
same,IC50,SIHA cells,578 µM
same,IC50,MKN45 cells,994 µM
same,IC50,COLO205 cells,> 1000 µM
same,IC50,HCT116 cells,> 1000 µM
"O=C(Nc1cnn2ccc(N3CCC[C@@H]3c3cc(F)ccc3F)nc12)N1CC[C@H](O)C1 [LOXO-101, (3S)—N-[5-[(2R)-2-(2,5-difluorophenyl)-1-pyrrolidinyl]pyrazolo[1,5-a]pyrimidin-3-yl]-3-hydroxy-1-pyrrolidinecarboxamide]",IC50,MO-91,< 0.01 µM
same,IC50,KM12,< 0.01 µM
same,IC50,CUTO-3.29,< 0.1 µM
same,IC50,[5],0.002 to 0.02 µM
"COc1ccc(CN2CCNCC2)c(OC)c1OC [Trimetazidine (hydrochloride), 1-[(2,3,4-trimethoxyphenyl)methyl]-piperazine, dihydrochloride]",IC50,[6],0.075 µM
"CC(=O)N(C)c1cccc(-c2ccnc3c(C(=O)c4cccs4)cnn23)c1 [Indiplon, N-methyl-N-[3-[3-(2-thienylcarbonyl)pyrazolo[1,5-a]pyrimidin-7-yl]phenyl]-acetamide]",EC50,[7],0.0026 µM
"CC[C@@]1(O)C(=O)OCc2c1cc1n(c2=O)Cc2cc3c(CN(C)C)c(O)ccc3nc2-1 [Topotecan, 10-[(dimethylamino)methyl]-4S-ethyl-4,9-dihydroxy-1H-pyrano[3′,4′:6,7]indolizino[1,2-b]quinoline-3,14(4H,12H)-dione, monohydrochloride]",IC50,[8],0.033 µM
same,IC50,[9],0.28 µM
"Clc1ccc(Cn2c(CN3CCCC3)nc3ccccc32)cc1 [Clemizole, 1-[(4-chlorophenyl)methyl]-2-(1-pyrrolidinylmethyl)-1H-benzimidazole, monohydrochloride]",IC50,[10],1 to 1.3 µM
"CC(C)(C)C(=O)OCOP(=O)(COCCn1cnc2c(N)ncnc21)OCOC(=O)C(C)(C)C [Adefovir dipivoxil, 2,2-dimethyl-propanoic acid, 1,1′-[[[[2-(6-amino-9H-purin-9-yl)ethoxy]methyl]phosphinylidene]bis(oxymethylene)]ester]",ED50,HBV,0.2 μmol/kg per day
same,CC50,HepG2 2.2.15 cells,540 µM
same,EC50,hepatitis B virus (HBV),0.517 µM
